The results in this text go back to PubChem BioAssay AID1259407 (Chemical Carcinogenesis Research Information System (CCRIS), 2018).

For this data set, the system named is CCRIS mutagenicity, Ames/micronucleus/aberration tests. Kind of data set: CCRIS mutagenicity studies.
Setting [1] is: Test System: AMES SALMONELLA TYPHIMURIUM, Strain/Indicator: TA98, Metabolic Activation: NONE, Method: STANDARD PLATE.
The mark [2] stands for this setting: Test System: AMES SALMONELLA TYPHIMURIUM, Strain/Indicator: TA100, Metabolic Activation: NONE, Method: STANDARD PLATE.
[3] abbreviates: Test System: AMES SALMONELLA TYPHIMURIUM, Strain/Indicator: TA98, Metabolic Activation: RAT, LIVER, S-9, AROCLOR 1254, Method: STANDARD PLATE.

Activity calls are given as the source filed them. How the calls were made is not given here.

Turning to `O=[N+]([O-])c1ccc2c(c1)c([N+](=O)[O-])cc1ccccc12`, the mutagenic call reads like this: (Test System: AMES SALMONELLA TYPHIMURIUM, Strain/Indicator: TA98(1,8-DNP6), Metabolic Activation: NONE, Method: STANDARD PLATE) “active; positive”; (Test System: AMES SALMONELLA TYPHIMURIUM, Strain/Indicator: TA98(NR), Metabolic Activation: NONE, Method: STANDARD PLATE) “active; positive”; under setting [1], “active; positive”; under setting [2], “active; positive”; (Test System: AMES SALMONELLA TYPHIMURIUM, Strain/Indicator: YG1021, Metabolic Activation: NONE, Method: STANDARD PLATE) “active; positive”; (Test System: AMES SALMONELLA TYPHIMURIUM, Strain/Indicator: YG1024, Metabolic Activation: NONE, Method: STANDARD PLATE) “active; positive”. Further, the mutagenic call is, setting by setting: (Test System: AMES SALMONELLA TYPHIMURIUM, Strain/Indicator: YG1026, Metabolic Activation: NONE, Method: STANDARD PLATE) “active; positive”; (Test System: AMES SALMONELLA TYPHIMURIUM, Strain/Indicator: YG1029, Metabolic Activation: NONE, Method: STANDARD PLATE) “active; positive”.

For `C/C(Cl)=C/C=O`, the mutagenic call runs as follows: (Test System: AMES SALMONELLA TYPHIMURIUM, Strain/Indicator: D3052, Metabolic Activation: NONE, Method: PREINCUBATION, LIQUID INCUBATION) “active; positive”; (Test System: AMES SALMONELLA TYPHIMURIUM, Strain/Indicator: TA98, Metabolic Activation: NONE, Method: PREINCUBATION, LIQUID INCUBATION) “inactive; negative”; (Test System: AMES SALMONELLA TYPHIMURIUM, Strain/Indicator: TA100, Metabolic Activation: NONE, Method: PREINCUBATION, LIQUID INCUBATION) “inactive; negative”; (Test System: AMES SALMONELLA TYPHIMURIUM, Strain/Indicator: TA1535, Metabolic Activation: NONE, Method: PREINCUBATION, LIQUID INCUBATION) “inactive; negative”; (Test System: AMES SALMONELLA TYPHIMURIUM, Strain/Indicator: TA1538, Metabolic Activation: NONE, Method: PREINCUBATION, LIQUID INCUBATION) “inactive; negative”.

On to `O=C(O)c1cccnc1Nc1cccc(C(F)(F)F)c1`, for which, where the note is “Test System: AMES SALMONELLA TYPHIMURIUM, Strain/Indicator: TA1535, Metabolic Activation: NONE, Method: STANDARD PLATE”, the mutagenic call was “inactive; negative”.

`Cc1nc2c(C)c(C)c3c(nc(N)n3C)c2nc1C`: under setting [3], the mutagenic call is “active; positive”.

With `CC(C)Oc1ccccc1OC(=O)N(C)N=O`, the mutagenic call is “active; positive (structural changes)” (End Point: In vitro chromosomal aberrations, Test System: Chinese hamster ovary (CHO-W8) cells, Metabolic Activation: None); “active; positive” (Test System: CHINESE HAMSTER V-79, Strain/Indicator: V-79 (HPRT)/6-THIOGUANINE, Metabolic Activation: NONE); “active; positive” (Test System: E. COLI WP2, Strain/Indicator: WP2, Metabolic Activation: NONE, Method: STANDARD PLATE).

Turning to `OCCN1CC1`, the mutagenic call (Test System: CHINESE HAMSTER V-79, Strain/Indicator: V-79/6-THIOGUANINE, Metabolic Activation: NONE, Method: FLASK ASSAY) was “active; positive”.

Turning to `ONc1cccc(-c2ccccc2)c1`, the mutagenic call under setting [1] is “inactive; negative” and the mutagenic call under setting [2] was “inactive; negative”.

As to `N[C@@H](CCC(=O)NNc1ccc(CO)cc1)C(=O)O`, the mutagenic call (Test System: AMES SALMONELLA TYPHIMURIUM, Strain/Indicator: TA97, Metabolic Activation: NONE) is “active; positive”; the mutagenic call (Test System: AMES SALMONELLA TYPHIMURIUM, Strain/Indicator: TA98, Metabolic Activation: NONE) was “inactive; negative”; the mutagenic call (Test System: AMES SALMONELLA TYPHIMURIUM, Strain/Indicator: TA100, Metabolic Activation: NONE) was “inactive; negative”; the mutagenic call (Test System: AMES SALMONELLA TYPHIMURIUM, Strain/Indicator: TA102, Metabolic Activation: NONE) is “inactive; negative”; the mutagenic call (Test System: AMES SALMONELLA TYPHIMURIUM, Strain/Indicator: TA104, Metabolic Activation: MUSHROOM TYROSINASE, Method: PREINCUBATION) is “inactive; negative”; the mutagenic call (Test System: AMES SALMONELLA TYPHIMURIUM, Strain/Indicator: TA104, Metabolic Activation: NONE) is “active; positive”. The mutagenic call is “inactive; negative” (Test System: AMES SALMONELLA TYPHIMURIUM, Strain/Indicator: TA104, Metabolic Activation: NONE, Method: PREINCUBATION); “active; positive” (Test System: AMES SALMONELLA TYPHIMURIUM, Strain/Indicator: TA104, Metabolic Activation: RAT, KIDNEY, HOMOGENATE, REDUCED GLUTATHIONE, Method: PREINCUBATION); “active; positive” (Test System: AMES SALMONELLA TYPHIMURIUM, Strain/Indicator: TA104, Metabolic Activation: RAT, KIDNEY, HOMOGENATE, Method: PREINCUBATION); “active; positive” (Test System: AMES SALMONELLA TYPHIMURIUM, Strain/Indicator: TA104, Metabolic Activation: RAT, LIVER, CYTOSOL, AROCLOR 1254, NADPH, Method: PREINCUBATION); “active; positive” (Test System: AMES SALMONELLA TYPHIMURIUM, Strain/Indicator: TA104, Metabolic Activation: RAT, LIVER, CYTOSOLIC FRACTION, AROCLOR 1254 (10%)); “inactive; negative” (Test System: AMES SALMONELLA TYPHIMURIUM, Strain/Indicator: TA104, Metabolic Activation: RAT, LIVER, MICROSOMES, AROCLOR 1254, Method: PREINCUBATION). Also, the mutagenic call (Test System: AMES SALMONELLA TYPHIMURIUM, Strain/Indicator: TA104, Metabolic Activation: RAT, LIVER, MICROSOMES, AROCLOR 1254 AND RAT, KIDNEY, HOMOGENATE, Method: PREINCUBATION) was “active; positive”; the mutagenic call (Test System: AMES SALMONELLA TYPHIMURIUM, Strain/Indicator: TA1535, Metabolic Activation: NONE) is “inactive; negative”; the mutagenic call (Test System: AMES SALMONELLA TYPHIMURIUM, Strain/Indicator: TA1535, Metabolic Activation: NONE, Method: PREINCUBATION) is “inactive; negative”; the mutagenic call (Test System: AMES SALMONELLA TYPHIMURIUM, Strain/Indicator: TA1535, Metabolic Activation: RAT, LIVER, S-9, AROCLOR 1254, Method: PREINCUBATION) was “inactive; negative”; the mutagenic call (Test System: AMES SALMONELLA TYPHIMURIUM, Strain/Indicator: TA1537, Metabolic Activation: NONE) is “active; positive”; the mutagenic call (Test System: AMES SALMONELLA TYPHIMURIUM, Strain/Indicator: TA1537, Metabolic Activation: NONE, Method: PREINCUBATION) was “inactive; negative”. Moreover, the mutagenic call is “inactive; negative” (Test System: AMES SALMONELLA TYPHIMURIUM, Strain/Indicator: TA1537, Metabolic Activation: RAT, LIVER, S-9, AROCLOR 1254, Method: PREINCUBATION) and “inactive; negative” (Test System: AMES SALMONELLA TYPHIMURIUM, Strain/Indicator: TA1538, Metabolic Activation: NONE).

For the compound `CC(=O)ON(OCc1ccc(C(C)(C)C)cc1)C(=O)c1ccccc1`, the mutagenic call under setting [2] is “active; positive”.

Consider `O=C(c1ccccc1)[C@@H]1O[C@@H]1c1ccc(Br)cc1`, for which the mutagenic call is, setting by setting: under setting [1], “inactive; negative”; under setting [3], “inactive; negative”; under setting [2], “inactive; negative”; (Test System: AMES SALMONELLA TYPHIMURIUM, Strain/Indicator: TA100, Metabolic Activation: RAT, LIVER, S-9, AROCLOR 1254, Method: STANDARD PLATE) “inactive; negative”.

Consider `Cc1ccc(NN=NCc2ccc([N+](=O)[O-])cc2)cc1`, for which the mutagenic call was “active; positive” (Test System: AMES SALMONELLA TYPHIMURIUM, Strain/Indicator: TA98, Metabolic Activation: NONE, Method: PREINCUBATION); “active; positive” (Test System: AMES SALMONELLA TYPHIMURIUM, Strain/Indicator: TA98, Metabolic Activation: RAT, LIVER, S-9, PCB, Method: PREINCUBATION); “active; positive” (Test System: AMES SALMONELLA TYPHIMURIUM, Strain/Indicator: TA100, Metabolic Activation: NONE, Method: PREINCUBATION); “active; positive” (Test System: AMES SALMONELLA TYPHIMURIUM, Strain/Indicator: TA100, Metabolic Activation: RAT, LIVER, S-9, PCB, Method: PREINCUBATION).
